Assay results published in article PMC4537392 (Neuropharmacology, 2015).

Legend:
[1] = target: T1, mGlu4 (Rattus norvegicus, UniProt P31423); test: Co-operative assay: enhancement of [3H]3 binding by orthosteric agonists
[2] = target: T1, mGlu4; test: mGlu4 competitive binding assay against [3H]ML128; conditions: 10 nM compound
[3] = target: T1, mGlu4; test: Ion dependency of [3H]3 binding; conditions: 10 nM [3H]3, 30 μM L-AP4, Hepes buffer with or without NaCl, MgCl2, KCl, CaCl2
[4] = target: T1, mGlu4; test: Temperature dependency of [3H]3 binding; conditions: 10 nM [3H]3, 100 nM Glu, 30 min

T1 sequence (P31423 33-912): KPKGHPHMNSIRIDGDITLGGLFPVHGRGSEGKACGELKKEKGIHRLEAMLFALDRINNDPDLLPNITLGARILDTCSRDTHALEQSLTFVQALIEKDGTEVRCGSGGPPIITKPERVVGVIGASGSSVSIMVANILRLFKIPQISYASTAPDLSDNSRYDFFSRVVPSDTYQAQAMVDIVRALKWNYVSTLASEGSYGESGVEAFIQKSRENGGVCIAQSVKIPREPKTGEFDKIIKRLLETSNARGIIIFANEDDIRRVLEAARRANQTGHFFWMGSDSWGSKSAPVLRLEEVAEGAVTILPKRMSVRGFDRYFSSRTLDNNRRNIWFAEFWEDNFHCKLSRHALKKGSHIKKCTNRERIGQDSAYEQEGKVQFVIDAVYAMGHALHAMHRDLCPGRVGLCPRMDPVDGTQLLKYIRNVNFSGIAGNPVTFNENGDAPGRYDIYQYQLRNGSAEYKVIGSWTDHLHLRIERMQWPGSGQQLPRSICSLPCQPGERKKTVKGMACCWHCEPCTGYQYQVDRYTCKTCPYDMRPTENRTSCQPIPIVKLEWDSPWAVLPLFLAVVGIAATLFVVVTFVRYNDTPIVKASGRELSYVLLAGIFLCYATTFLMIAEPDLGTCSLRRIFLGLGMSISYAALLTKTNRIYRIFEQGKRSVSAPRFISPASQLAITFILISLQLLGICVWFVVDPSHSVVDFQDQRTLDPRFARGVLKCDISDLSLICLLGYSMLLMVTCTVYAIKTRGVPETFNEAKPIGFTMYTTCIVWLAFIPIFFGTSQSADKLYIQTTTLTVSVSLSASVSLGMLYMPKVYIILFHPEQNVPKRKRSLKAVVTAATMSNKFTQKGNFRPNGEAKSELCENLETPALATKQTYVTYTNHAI

N[C@@H](CCC(=O)O)C(=O)O [compound 1, L-Glutamate acid]
EC50 [1]: 832 nM

NC(CCP(=O)(O)O)C(=O)O [compound 2, L-AP4]
logEC50 (enhancement of [3H]3 binding by orthosteric agonist) ([1]; 10 nM [3H]3, CHO cells expressing mGlu4, 30 min room temperature, n=3): −6.67 (SE 0.05)

O=C(Nc1ccc(N2C(=O)c3cccc(F)c3C2=O)c(Cl)c1)c1ccccn1 [compound 4, N-(3-Chloro-4-(4-fluoro-1,3-dioxo-isoindolin-2-yl)phenyl)-2-picolinamide]
bound fraction of [3H]3, single concentration assay ([2]; higher glutamate concentration, n=9, SE 1.2): 21.4%
bound fraction of [3H]3, single concentration assay ([2]; lower glutamate concentration, n=9, SE 1.4): 35.4%

COc1cc(NC(=O)c2ccccn2)ccc1Cl [[^3H]3, N-(4-Chloro-3-methoxyphenyl)-2-picolinamide]
ion dependency of specific binding [3]: related to chloride ion
total amount of specific binding at +4 °C and +25 °C [4]: quite similar at +4 °C and +25 °C
specific binding at higher temperature (+45 °C) ([4]; +45 °C): drops the specific binding
